Test results as given in patent US8071810B2, “C5a receptor antagonists” (Jerini AG, priority 2005, dated 2011).
Where two headings read alike, the source gives them in different places.

Biological target: T1, human C5a receptor (CD88) (Homo sapiens, UniProt P21730)
T1 construct: expressed in transfected cells; host or cells: rat basophilic leukemia (RBL) cells, stably transfected
T1 sequence (P21730 1-350): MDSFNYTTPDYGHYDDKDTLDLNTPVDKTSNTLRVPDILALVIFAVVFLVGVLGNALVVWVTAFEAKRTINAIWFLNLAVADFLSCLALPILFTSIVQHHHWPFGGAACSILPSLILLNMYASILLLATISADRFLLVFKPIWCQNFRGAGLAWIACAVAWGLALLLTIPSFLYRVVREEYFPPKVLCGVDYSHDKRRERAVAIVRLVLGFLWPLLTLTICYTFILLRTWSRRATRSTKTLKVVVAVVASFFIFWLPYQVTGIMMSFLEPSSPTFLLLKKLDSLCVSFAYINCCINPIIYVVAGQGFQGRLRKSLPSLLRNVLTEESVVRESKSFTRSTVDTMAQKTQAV
Assay: C5a induced enzyme (glucosaminidase) release assay in RBL cells expressing the human C5a receptor (Example 28)
Assay type: cell-based
Conditions: for IC50: RBL cells with human C5aR
Experimental: Basophile leukemia cells from rats (RBL), which express the human C5a receptor (CD88), are cultivated in DMEM with 10% fetal calf serum, 100 U/ml penicillin, 100 μg/ml streptomycin and 2 mM glutamin (all constituents are from Biochrome, Berlin) at 37° C. and with 10% CO2 until a confluent layer is obtained. All following details refer to a tissue culture flask with 75 cm^2 surface. The used up medium is removed. The cells are washed with 10 ml PBS (Dulbecco's PBS, Biochrome) and then covered with 3 ml cell dissociation solution (CDS, Sigma). The cells are incubated for 1 minute at room temperature. Then the CDS is removed and the cells are incubated for further 10-15 minutes at 37° C. to detach the cells completely from the flask. 20 μl solution of the compound to be testet are used in the assay. […] The dilution series are prepared in ⅓ or ½ steps. […] The cells are counted and centrifuged (200 g, 10 min). The cell pellet is taken up with pre-heated HAG-CM, and the cell density is adjusted to 2×10^6 Zellen/ml. The cells are incubated for 5 minutes at 37° C. 2.7 μl of a cytochalasin B solution (1000 μg/ml in DMSO, Sigma) are added per ml cell suspension. The Zellen are incubated for another 3 min at 37° C. Then, 75 μl of the cell suspension are added to the 20 μl solution containing the compounds to be tested. […] The cells are again incubated for 10 minutes at 37° C. […] After this the plates are put on ice and centrifuged for 3 minutes at 1200×g and 4° C. […] The plate is incubated for 1 hour at 37° C. […] The IC50 value is determined by solving the four parameter equation y=((A−D)/(1+(x/C)^B))+D.

[1] = inhibition of C5a induced enzyme release, read-out: Activity-range (antagonistic activity, IC50 enzyme release)
[2] = read-out: IC50 for the inhibition of C5a induced enzyme release

| Compound | IC50 [1] [nM] | also measured |
| --- | --- | --- |
| CCc1ccc(N(Cc2ccc(N)cc2)C(=O)Nc2c(CC)c(N)cc(Cl)c2CC)cc1 [compound 116, 1-(4-amino-benzyl)-3-(3-amino-5-chloro-2,6-diethyl-phenyl)-1-(4-ethyl-phenyl)-urea] | 200 to 5000 | – |
| CCc1c(N)cc(Cl)c(CC)c1NC(=O)N(Cc1ccc(Cl)cc1)c1ccc(NC)cc1 | – | IC50 [2]: 19 nM |
| CCc1c(N)cc(Cl)c(CC)c1NC(=O)N(c1ccc(C(C)C)cc1)[C@@H](C)c1ccc(Cl)cc1 [compound 78, (S)-3-(3-amino-5-chloro-2,6-diethyl-phenyl)-1-[1-(4-chlor-phenyl)-ethyl]-1-(4-isopropyl-phenyl)-urea] | < 60 | – |
| CCc1ccc(N(C(=O)Nc2c(CC)c(N)cc(Cl)c2CC)C(C[N+](=O)[O-])c2ccccc2)cc1 (centres unmarked) [compound 112, 3-(3-amino-5-chloro-2,6-diethyl-phenyl)-1-(4-ethyl-phenyl)-1-(2-nitro-1-phenyl-ethyl)-urea] | 200 to 5000 | – |
| CCc1c(N)cc(Cl)c(CC)c1NC(=O)N(c1ccc(C(C)C)cc1)[C@@H](C)c1ccc(C)cc1 [(S)-3-(3-Amino-5-chlor-2,6-diethyl-phenyl)-1-(4-isopropyl-ph] | – | IC50 [2]: 32 nM |
| CCc1c(Cl)cc(N=O)c(CC)c1NC(=O)N(c1ccc(NC)cc1)[C@@H](C)c1ccc(Cl)cc1 [compound 133, (S)-3-(3-chloro-2,6-diethyl-5-nitroso-phenyl)-1-[1-(4-chloro-phenyl)-ethyl]-1-(4-methylamino-phenyl)-urea] | < 60 | – |
| CCc1c(Cl)cc(NCc2nccn2C)c(CC)c1NC(=O)N(Cc1ccc(OC)cc1)c1ccc(C(C)C)cc1 [compound 38, 3-{3-chloro-2,6-diethyl-5-[(1-methyl-1H-imidazol-2-ylmethyl)-amino]-phenyl}-1-(4-isopropyl-phenyl)-1-(4-methoxy-benzyl)-urea] | 200 to 5000 | – |
| C#Cc1ccc(N(Cc2ccc(OC)cc2)C(=O)Nc2c(CC)c(N)cc(Cl)c2CC)cc1 [compound 85, 3-(3-amino-5-chloro-2,6-diethyl-phenyl)-1-(4-ethynyl-phenyl)-1-(4-methoxy-benzyl)-urea] | 200 to 5000 | – |
| Cc1ccc([C@H](C)N(C(=O)Nc2c(C)c(N)cc(Cl)c2C)c2ccc(C(C)C)cc2)cc1 [compound 79, (S)-3-(3-amino-5-chloro-2,6-dimethyl-phenyl)-1-(4-isopropyl-phenyl)-1-(1-p-tolyl-ethyl)-urea] | 200 to 5000 | – |
| CCc1c(N)cc(Cl)c(CC)c1NC(=O)N(CC1CCCCC1)c1ccc(C(C)C)cc1 [compound 60, 3-(3-amino-5-chloro-2,6-diethyl-phenyl)-1-cyclohexylmethyl-1-(4-isopropyl-phenyl)-urea] | 200 to 5000 | – |
| CCc1c(N)cc(Cl)c(CC)c1NC(=O)N(Cc1ccccc1)c1ccc(N(C)C)cc1 [compound 128, 3-(3-amino-5-chloro-2,6-diethyl-phenyl)-1-benzyl-1-(4-dimethylamino-phenyl)-urea] | 200 to 5000 | – |
| CCc1c(N)cc(Cl)c(CC)c1NC(=O)N(Cc1ccc(S(C)(=O)=O)cc1)c1ccc(C(C)C)cc1 [compound 64, 3-(3-amino-5-chloro-2,6-diethyl-phenyl)-1-(4-isopropyl-phenyl)-1-(4-methansulfonyl-benzyl)-urea] | 200 to 5000 | – |
| CCc1c(N)cc(Cl)c(CC)c1NC(=O)N(Cc1ccc(Cl)cc1)c1ccc(N(C)C)cc1 [compound 127, 3-(3-amino-5-chloro-2,6-diethyl-phenyl)-1-(4-chloro-benzyl)-1-(4-dimethylamino-phenyl)-urea] | 200 to 5000 | – |
| CCc1ccc(N)c(CC)c1NC(=O)N(Cc1ccc(OC)cc1F)c1ccc(C(C)C)cc1 [compound 59, 3-(3-amino-2,6-diethyl-phenyl)-1-(2-fluoro-4-methoxy-benzyl)-1-(4-isopropyl-phenyl)-urea] | 200 to 5000 | – |
| CCc1c(N)cc(Cl)c(CC)c1NC(=O)N(c1ccc(OC)cc1F)[C@@H](C)c1ccc(Cl)cc1 | – | IC50 [2]: 31 nM |
| CCc1ccc(NCC(N)=O)c(CC)c1NC(=O)N(Cc1ccc(OC)cc1)c1ccc(C(C)C)cc1 [compound 29, 2-{2,4-diethyl-3-[3-(4-isopropyl-phenyl)-3-(4-methoxy-benzyl)-ureido]-phenylamino}-acetamide] | 200 to 5000 | – |

| Compound | IC50 [1] [nM] | also measured |
| --- | --- | --- |
| CCc1c(N)cc(Cl)c(CC)c1NC(=O)N(c1ccc([S+](C)[O-])cc1)[C@@H](C)c1ccc(Cl)cc1 (stereo partly drawn) [compound 95, (S)-3-(3-amino-5-chloro-2,6-diethyl-phenyl)-1-[1-(4-chloro-phenyl)-ethyl]-1-(4-methanesulfinyl-phenyl)-urea] | 200 to 5000 | – |
| CCc1c(N)cc(Cl)c(CC)c1NC(=O)N(Cc1ccc(C(F)(F)F)nc1)c1ccc(C(C)C)cc1 [compound 87, 3-(3-amino-5-chloro-2,6-diethyl-phenyl)-1-(4-isopropyl-phenyl)-1-(6-trifluoromethyl-pyridin-3-ylmethyl)-urea] | 200 to 5000 | – |
| CCc1c(N)cc(Cl)c(CC)c1NC(=O)N(Cc1ccc(Cl)cc1)c1ccc(OC(F)F)cc1 [compound 117, 3-(3-amino-5-chloro-2,6-diethyl-phenyl)-1-(4-chloro-benzyl)-1-(4-difluoromethoxy-phenyl)-urea] | 200 to 5000 | – |
| CCc1cccc(CC)c1NC(=O)N(Cc1ccc(OC)cc1)c1ccc(C(C)C)cc1 [compound 26, 3-(2,6-diethyl-phenyl)-1-(4-isopropyl-phenyl)-1-(4-methoxy-benzyl)-urea] | – | IC50 [2]: 524 nM |
| CCNc1ccc(N(Cc2ccc(Cl)cc2)C(=O)Nc2c(CC)c(N)cc(Cl)c2CC)cc1 [compound 136, 3-(3-amino-5-chloro-2,6-diethyl-phenyl)-1-(4-chloro-benzyl)-1-(4-ethylamino-phenyl)-urea] | < 60 | – |
| CCc1c(N)cc(Cl)c(CC)c1NC(=O)N(c1ccc(C(C)C)cc1)[C@@H](C)c1ccc(F)cc1 [(S)-3-(3-Amino-5-chlor-2,6-diethyl-phenyl)-1-[1-(4-fluor-phe] | – | IC50 [2]: 38 nM |
| CCc1c(N)cc(Cl)c(CC)c1NC(=O)N(Cc1ccc(Cl)cc1)c1ccc(SC(F)(F)F)cc1 [compound 93, 3-(3-amino-5-chloro-2,6-diethyl-phenyl)-1-(4-chloro-benzyl)-1-(4-trifluoromethylsulfanyl-phenyl)-urea] | 200 to 5000 | – |
| CCc1ccc(N)c(CC)c1NC(=O)N(Cc1ccc(C)cc1)c1ccc(C(C)C)cc1 [compound 39, 3-(3-amino-2,6-diethyl-phenyl)-1-(4-isopropyl-phenyl)-1-(4-methyl-benzyl)-urea] | 200 to 5000 | – |
| CCc1ccc(CN(C(=O)Nc2c(CC)c(N)cc(Cl)c2CC)c2ccc(C(C)C)cc2)cc1 [compound 35, 3-(3-amino-5-chloro-2,6-diethyl-phenyl)-1-(4-ethyl-benzyl)-1-(4-isopropyl-phenyl)-urea] | 200 to 5000 | – |
| CCc1c(N)cc(Cl)c(CC)c1NC(=O)N(Cc1ccc(Cl)cc1)c1ccc(C(C)C)cc1 [compound 72, 3-(3-amino-5-chloro-2,6-diethyl-phenyl)-1-(4-chlor-benzyl)-1-(4-isopropyl-phenyl)-urea] | 60 to 200 | – |
| CCc1ccc(N(Cc2cnc(N(C)C)nc2)C(=O)Nc2c(CC)c(N)cc(Cl)c2CC)cc1 [compound 121, 3-(3-amino-5-chloro-2,6-diethyl-phenyl)-1-(2-dimethylamino-pyrimidin-e5-ylmethyl)-1-(4-ethyl-phenyl)-urea] | 200 to 5000 | – |
| CCc1ccc(N(C(=O)Nc2c(CC)c(N)cc(Cl)c2CC)[C@@H](C)c2ccc(F)cc2)cc1 [compound 82, (S)-3-(3-amino-5-chloro-2,6-diethyl-phenyl)-1-(4-ethyl-phenyl)-1-[1-(4-fluoro-phenyl)-ethyl]-urea] | 60 to 200 | – |
| CCc1ccc(N(Cc2ccc(Br)cc2)C(=O)Nc2c(CC)c(N)cc(Cl)c2CC)cc1 [compound 99, 3-(3-amino-5-chloro-2,6-diethyl-phenyl)-1-(4-bromo-benzyl)-1-(4-ethyl-phenyl)-urea] | < 60 | – |
| CCc1c(N)cc(Cl)c(CC)c1NC(=O)N(Cc1ccccc1)c1ccc(NC)cc1 [compound 129, 3-(3-amino-5-chloro-2,6-diethyl-phenyl)-1-benzyl-1-(4-methylamino-phenyl)-urea] | 60 to 200 | – |
| CCc1c(N)cc(Cl)c(CC)c1NC(=O)N(c1ccc(C(C)C)cc1)[C@@H](C)c1ccc(OC)cc1 [compound 66, (S)-3-(3-amino-5-chloro-2,6-diethyl-phenyl)-1-(4-isopropyl-phenyl)-1-[1-(4-methoxy-phenyl)-ethyl]-urea] | – | IC50 [2]: 55 nM; Times higher antagonistic activity of S configuration than (R) configuration (56) (ratio of enzyme release IC50 values): 11 |
